Laboratory results as given in patent publication US20110021471A1, “REDUCING Abeta42 LEVELS AND Abeta AGGREGATION” (priority 2007, published 2011).
Read-outs that look alike come from different tables or passages of the source.

Assays:
[1] = system: H4Bri-C99 (CTF-3)
Method: FIG. 6. […] Parent GSMs and biotin tagged photoactivatable GSMs were evaluated for their effects on Aβ secreted from H4Bri-C99 (CTF-3). Cells were treated with compounds for 6 hours and Aβ measured by ELISA. […] Changes in Aβ (percent control)±s.e.m., n=3.
(§1) Photoaffinity labelling. All experiments used the following general protocol. Samples (recombinant or synthetic peptides, cell lysates and membrane preparations) were exposed in borosilicate test tubes to ultraviolet light (350 nm) in a Rayonet Photoreactor R100 (RPR-3500 lamps, Southern New England Ultra Violet Company) in a cold room (4° C.) for 30 minutes or as otherwise noted. Crosslinked samples were analyzed by ELISA for biotin incorporation, or analyzed directly by SDS-PAGE (Criterion-XT, Bio-Rad), or after precipitation with streptavidin ultralink plus beads (Pierce). After immunblotting, proteins were detected using chemiluminesence (ECL Plus, GEHealthcare) or near-infrared fluorescence (LiCor Odyssey). Full-length APP and APP CTFs (CTF83, CTF99) were detected with CT20, a rabbit polyclonal antibody against the C-terminus of APP. Biotin was detected with an affinity-purified rabbit polyclonal antibody (Bethyl). Cell-based screens for amyloid-β modulation. Human H4 neuroglioma cells (American Type Culture Collection, ATCC) expressing wild-type APP695 protein or CTF105 fused to secreted alkaline phosphatase which is efficiently processed to APP CTFs (CTF83, CTF99) and produce high levels of amyloid-β, were used for the cell-based screens as previously described. Cells were incubated for 5-6 hours in the presence of the various compounds in Opti-Mem culture medium containing 1% fetal bovine serum. Compounds were dissolved in dimethylsulphoxide (DMSO; 0.5% final concentration) and diluted 200-fold. Media was analyzed for various amyloid-β species (40, 42 and total) using ELISAs as described herein. The EC50 values for changes in amyloid-β species were calculated by fitting sigmoid dose-response curves using nonlinear regression in Prism (GraphPad) and are shown as values±s.e.m. Statistical analysis. Data are presented as either percentage control or mean±s.e.m. Results were analyzed using Prism (Graph Pad) with t-tests or one-way analysis of variance analyses (ANOVAs) with Dunnett's post-hoc correction for comparison of multiple samples to a control. Statistical significance is shown as P,0.05 (one asterisk), P,0.01 (two asterisks) or P,0.001 (three asterisks).

[2] = target: T1, γ-secretase (Homo sapiens, UniProt P49768); assay: Cell-free in vitro γ-secretase assay; format: biochemical; settings: for Aβ40 in cell-free γ-secretase assay / total Aβ production in cell-free γ-secretase assay: increasing doses
Method: FIG. 5. Fenofibrate-Biotin (Fen-B) is an Aβ42 raising GSM that labels cell-derived APP-CTF. (A) The effects of fenofibrate and fenofibrate-biotin (Fen-B) on Aβ production were investigated in a cell-free in vitro γ-secretase assay performed as described in the methods. […] Percent control Aβ species±s.e.m., n=2. (B) Fen-B labels APP-CTFs from cells lysates. CHAPSO solubilized membrane fractions from H4 APP-CTF-105-AP cells were irradiated (350 nm) in the presence of Fen-B (50 μM) for 30 minutes. Biotinylated material was precipitated with streptavidin overnight (SAv). Beads were washed (3×) and then incubated with XT sample buffer, heated to 95° C., run on 12% Criterion XT gels, and transferred to nitrocellulose membranes. Blots were probed for biotin (Bethyl) and APP (CT20). Excess drug (Fen-B) and unlableled APP-CTF is detected in the flow-through from the beads (unbound lane). Biotin bound to streptavdin (SAv) is detected by the anti-biotin antibody. APP-CTF-83 is pulled down in lane 2 and is reactive with anti-biotin and anti-APP (CT20).
Congo red (CR) and chrysamine G (CG), two of the most well characterized amyloid-β dyes, act as GSMs in cell-free γ-secretase assays.

[3] = system: H4 APPwt cells; assay: Immunoprecipitation-mass spectrometry of media from H4 APPwt cells; format: cell-based, human
Method: FIG. 14. Amyloid binding compounds alter the cleavage of Aβ similar to other established γ-secretase modulators Immunoprecipitation-mass spectrometry studies were conducted on media from H4 APPwt cells grown in the presence of test compounds for 16 hours. Conditions were: control (DMSO, 0.5%), sulindac sulfide (SS; 25 μM), chrysamine g (CG; 25 μM), and X-34 (25 μM). SS was included as a control GSM known to reduce Aβ42 and increase Aβ38. Spectra shown are representative of two experiments with 2-3 replicates each. Identified Aβ peptides based on calculated mass (m/z) are indicated above the peaks.

[4] = target: T2, APP-CTF (Homo sapiens, UniProt P05067); assay: Photoaffinity labelling of APP and APP CTF in H4 cell membrane fractions and competition; format: binding; settings: for competition of APP-CTF labeling by Fen-B and Flurbi-BpB: photoprobe 25 μM, competitor 200 μM
T2 construct: this protein was designated α-secretase-derived APP CTF (CTF83) on the basis of molecular weight; expressed in transfected cells
T2 sequence (P05067 688-770 limits assumed): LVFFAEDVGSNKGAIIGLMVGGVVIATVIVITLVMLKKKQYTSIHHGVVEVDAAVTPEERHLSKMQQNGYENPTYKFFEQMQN
Method: Photoaffinity labelling. All experiments used the following general protocol. Samples (recombinant or synthetic peptides, cell lysates and membrane preparations) were exposed in borosilicate test tubes to ultraviolet light (350 nm) in a Rayonet Photoreactor R100 (RPR-3500 lamps, Southern New England Ultra Violet Company) in a cold room (4° C.) for 30 minutes or as otherwise noted. Crosslinked samples were analyzed by ELISA for biotin incorporation, or analyzed directly by SDS-PAGE (Criterion-XT, Bio-Rad), or after precipitation with streptavidin ultralink plus beads (Pierce). After immunblotting, proteins were detected using chemiluminesence (ECL Plus, GEHealthcare) or near-infrared fluorescence (LiCor Odyssey). Full-length APP and APP CTFs (CTF83, CTF99) were detected with CT20, a rabbit polyclonal antibody against the C-terminus of APP. Biotin was detected with an affinity-purified rabbit polyclonal antibody (Bethyl). Cell-based screens for amyloid-β modulation.

[5] = target: T3, APP(C100)-Flag (Homo sapiens, UniProt P05067); assay: Photoaffinity labelling of APP(C100)-Flag and competition; format: binding; settings: for competition of Fen-B labeling of C100Flag: Fen-B 10 μM, C100Flag 1 μM, competitor 100 μM
T3 construct: APP(C100)-Flag, comprising the 99 C-terminal residues of APP plus a methionine at the N-terminus; added methionine (N)
T3 sequence (P05067 672-770 limits assumed): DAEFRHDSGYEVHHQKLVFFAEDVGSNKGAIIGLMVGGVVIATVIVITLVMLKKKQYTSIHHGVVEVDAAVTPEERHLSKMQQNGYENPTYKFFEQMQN
Method: (§2) FIG. 1. […] The top panel is for anti-biotin staining; the middle panel is for anti-FLAG staining; and the bottom panel is an overlay of anti-biotin (red and anti-Flag green, LiCor Odyssey imaging). (E) Same samples as in D, but analyzed using an ELISA. Following crosslinking, C100Flag and N100 Flag were captured using anti-FLAG plate, and biotin incorporation was measured using streptavidin-HRP. […] Fen-B (50 μM) was crosslinked to Aβ (10 μM). Biotin labeling was measured following capture with an anti-Aβ1-16 antibody and detection with streptavidin-HRP.
as §1
The ability of a purified, recombinant Flag-tagged γ-secretase substrate derived from APP (APP(C100)-Flag, comprising the 99 C-terminal residues of APP plus a methionine at the N-terminus) to be labeled by Fen-B and Flurbi-BpB was tested.

[6] = system: Human H4 neuroglioma cells expressing wild-type APP695 protein or CTF105; assay: Cell-based screens for amyloid-β modulation (H4 cells, ELISA); settings: for Aβ42 levels: H4 cells expressing APP
Description: Photoaffinity labelling. All experiments used the following general protocol. […] Cell-based screens for amyloid-β modulation. […] Statistical analysis.

[7] = target: amyloid-β peptides (Aβ1-40, Aβ1-36, Aβ1-28, Flag-Aβ25-36) (Homo sapiens, UniProt P05067); assay: Photoaffinity labelling of amyloid-β peptides; format: binding
Method: as §2, §1
Because the putative binding region of GSMs is also found in full-length APP, labeling of both APP fragments in cells was assayed.

[8] = target: T1, γ-secretase; assay: GSM activity of compounds that bind Aβ or Aβ amyloid (cell-based or cell-free γ-secretase assays, FIG. 12); settings: two doses (10 and 100 μM)
Method: A literature search was performed to identify compounds reported to bind to the Aβ peptide directly or amyloid. These candidates were initially tested in cell-based assays or cell-free in vitro γ-secretase assays at two doses (10 and 100 μM).
Finally, X-34 was tested for its ability to modulate Aβ42 amounts in an APP transgenic mouse (Tg2576).

## CC(C)OC(=O)C(C)(C)Oc1ccc(C(=O)c2ccc(Cl)cc2)cc1 [fenofibrate]
[1]; 33 μM, 6 hours
  Aβ42 increase: 300%
[1]; human, 6 h
  Toxicity, based on cell morphology and XTT assay: noted at higher concentrations (150, 200 μM)

## CSc1ccc(/C=C2/C(C)=C(CC(=O)O)c3cc(F)ccc32)cc1 [sulindac sulfide]
[2]
  Aβ42 in cell-free γ-secretase assay: lowered Aβ42 levels
  Aβ40 in cell-free γ-secretase assay: lowered Aβ40 at higher doses
  total Aβ production in cell-free γ-secretase assay: without decreasing total Aβ production
[3]; 25 μM, 16 hours
  levels of Aβ42 (IP-MS): consistently decrease levels of Aβ42
[4]
  competition of APP-CTF labeling by Fen-B and Flurbi-BpB: decreases labeling of APP-CTF
[4]; photoprobes 50 μM, data not shown
  competition of FL-APP and APP CTF labeling by Fen-B and Flurbi-BpB: prevents labeling of FL-APP and APP CTF

## CC1=C(CC(=O)O)c2cc(F)ccc2/C1=C\c1ccc(S(C)(=O)=O)cc1 [sulindac sulfone]
[5]
  competition of Fen-B labeling of C100Flag: not

## O=C(O)c1cc(/N=N/c2ccc(-c3ccc(/N=N/c4ccc(O)c(C(=O)O)c4)cc3)cc2)ccc1O [Chrysamine G]
[2]
  Aβ42 in cell-free γ-secretase assay: lowered Aβ42 selectively
  Aβ40 in cell-free γ-secretase assay: lowered Aβ40 at higher doses
  total Aβ production in cell-free γ-secretase assay: without decreasing total Aβ production
[2]; listed as CG
  Aβ42 in cell-free γ-secretase assay: lowered Aβ42 levels
[6]
  Aβ42 levels: decrease
[3]
  shorter amyloid-β (IP-MS): increased amounts of shorter amyloid-β
[3]; 25 μM, 16 hours
  Aβ33 levels (IP-MS): raise Aβ33 levels more effectively than SS
  levels of Aβ42 (IP-MS): consistently decrease levels of Aβ42

## CC(C(=O)O)c1ccc(-c2ccc(NC(=O)COc3ccc(C(=O)c4ccc(OCC(=O)NCCNC(=O)CCCC[C@H]5SC[C@H]6NC(=O)N[C@H]65)cc4)cc3)cc2)c(F)c1 (stereo in doubt) [Flurbi-BpB, 2-(2-fluoro-4′-(2-(4-(4-(2-oxo-2-(2-(5-((3aR,4R,6aS)-2-oxohexahydro-1H-thieno[3,4-d]imidazol-4 yl)pentanamido)ethylamino)ethoxy)benzoyl)phenoxy)acetamido)biphenyl-4-yl)propanoic acid]
[1]; 6 hours
  Aβ42 (direction of change): lowered Aβ42
[7]
  labeling of Aβ1-36: labeled
  labeling of Flag-tagged Aβ25-36: preferentially label
[5]
  labeling of APP(C100)-Flag: label a recombinant APP c-secretase substrate (APP(C100)-Flag) with similar potency
[4]; microsomal membrane fractions from H4 cells expressing wild-type APP
  labeling of full-length APP and APP CTFs: labeled full-length APP and APP CTFs

## Aβ28-36: synthetic peptide of the putative GSM binding region (KGAIIGLMV; Amyloid-beta protein 42; UniProt P05067 699-707, looked up, fragment)
[7]; competitor 100 μM, FLAG-Aβ-25-36 10 μM
  competition for labeling of FLAG-Aβ-25-36 by Fen-B or Flurbi-BpB: competes
[4]
  competition of APP-CTF labeling by Fen-B and Flurbi-BpB: decreases labeling of APP-CTF

## O=C(O)CCCC[C@@H]1SC[C@@H]2NC(=O)N[C@@H]21 [Biotin]
[1]; 6 hours
  Aβ levels: no effect

## COc1ccc2cc([C@H](C)C(=O)O)ccc2c1 [naproxen]
[5]
  competition of Fen-B labeling of C100Flag: did not compete

## COc1ccc2[nH]cc(CCNC(C)=O)c2c1 [melatonin]
[8]
  GSM activity: did not act as GSMs

## CC(=O)Oc1ccccc1C(=O)O [aspirin]
[5]
  competition of Fen-B labeling of C100Flag: did not compete

## O=C(c1ccccc1)c1ccccc1 [benzophenone]
[1]; 6 hours
  Aβ42 (direction of change): increased Aβ42

## O=C(CCCC[C@H]1SC[C@H]2NC(=O)N[C@H]21)NCCNC(=O)COc1ccc(C(=O)c2ccccc2)cc1 [BpB, N-(2-(2-(4-benzoylphenoxy)acetamido)ethyl)-5-((3aR,4R,6aS)-2-oxohexahydro-1Hthieno[3,4-d]imidazol-4-yl)pentanamide]
[1]; 6 hours
  Aβ42 (direction of change): increased Aβ42
[7]
  labeling of Aβ1-36: minor labelling

## Nc1c(/N=N/c2ccc(-c3ccc(/N=N/c4cc(S(=O)(=O)O)c5ccccc5c4N)cc3)cc2)cc(S(=O)(=O)O)c2ccccc12 [Congo red]
[2]
  Aβ42 in cell-free γ-secretase assay: lowered Aβ42 selectively
  total Aβ production in cell-free γ-secretase assay: without decreasing total Aβ production
[2]; listed as CR
  Aβ42 in cell-free γ-secretase assay: lowered Aβ42 levels

## Clc1ccc(C(c2ccc(Cl)cc2)n2cc[n+](CC(OCc3ccc(Cl)cc3Cl)c3ccc(Cl)cc3Cl)c2)cc1 (centres unmarked) [calmidazolium]
[8]
  GSM activity: Aβ42-raising

## NH2-FEGKF-CONH2 [I1]
[6]
  total amyloid-β amounts: without lowering total amyloid-β amounts
  Aβ42 levels: elevated Aβ42 production

## CNc1ccc(-c2nc3ccccc3s2)cc1 [BTA-1]
[8]
  GSM activity: did not act as GSMs
